Here are results for four compounds from patent US11319313B2, “Crystalline forms of deuterium-enriched pioglitazone” (Poxel SA, priority 2020, dated 2022).

Marks after values point to notes of the source that are not given here.

The nature of one series: in vivo. The note with it: beagle, dog, plasma, po, 10 mg/kg/day.
Series [1] can be described thus: 13-week dog toxicology study, toxicokinetics on day 91. The note with it: for AUC0-24,ss, total pioglitazone: Day 91, oral capsule 5 mg/kg/day.
Series [2] in a line: Phase Ib repeated-dose PK study in healthy human subjects. The class given is in vivo. The note with it: for AUC0-24,ss, total pioglitazone / AUC0-24, ss dose normalized, total pioglitazone: steady state; for AUC0-24,ss, total pioglitazone: fasting. The protocol:
Subjects were screened within 28 days before their first dose of study medication. They stayed in the clinic from 1 day before dosing (Day −1) until at least 48 hours after their final dose of trial medication (Day 11).
Each dose group was composed of 4 males and 4 females in a 3:1 active/placebo ratio. • One (1) Actos® group: 6 subjects (3 males and 3 females) were given Actos®. Placebo was not given to any subjects in this group.
Subjects received a single oral dose of study drug (7.5, 15, or 30 mg tablets of PXL065 or matching placebo tablets, or 45 mg Actos® tablets), under fasting conditions on Day 1. […] All study drugs were dosed in fasting conditions.
The PXL065 PK parameters of the three single oral doses on Day 1 and after seven daily administrations on Day 9 were compared to the Actos® PK parameters on Day 1 and after seven daily administrations on Day 9.
PXL065, orally administered. Dose=1×7.5 mg tablet, 1×15 mg tablet, or 1×30 mg tablet.
(§1) Actos®, orally administered. Dose=1×45 mg, tablet.
One single oral administration of PXL065 or matching placebo or Actos® was given on Day 1 in fasting conditions followed by once daily multiple oral administrations of PXL065 or matching placebo or Actos® from Day 3 to Day 9 (7 days) in fasting conditions.
Pharmacokinetics: Plasma samples were analyzed using a validated assay. The samples from all evaluable subjects were analyzed. Samples from subjects who experienced emesis within 4 hours of dosing were not analyzed.
Plasma PK parameters included, but were not limited to: • Following single dose on Day 1 and Day 3 (for PXL065 groups): tmax, tlag, Cmax, AUC0-last, AUC0-24, AUC0-inf, λz, t1/2, % AUCext, CL/F, Vz/F, Cmax/Dose, AUC0-last/Dose, AUC0-inf/Dose and MRT each calculated using compartmental or non-compartmental methods as appropriate for the deuterated and protonated (R)- and (S)-enantiomers of pioglitazone. • Day 4 to Day 9: Ctrough for the deuterated and protonated (R)- and (S)-enantiomers of pioglitazone; and • Following repeated doses on Day 9: tmax, Cmax, Cavg, tlag, AUC0-last, AUC0-24, AUC0-inf, λz, t1/2, % AUCext, CLss/F, Vzss/F, MRT, PTF, Rac(AUC0-24), Rac(Cmax) SR(AUC), Cmax/Dose, AUC0-last/Dose, AUC0-inf/Dose, AUC0-24/Dose. Safety

Series [3] is described as follows: Dog pharmacokinetic (PK) study, single oral administration. Format: in vivo, Beagle dogs. The protocol: The 3 Beagle male dogs were fasted before dosing. Then all test drugs were administered by the oral route using API in a capsule. [table] Food was given no sooner than one hour after dose administration on the days of treatment. Each administration was separated by a wash-out period of at least 2 days. […] Predose (just before dosing) and then […] after dosing.

The nature of series [4]: Phase Ia single-dose PK study in healthy human subjects. The note with it: single oral dose 22.5 mg capsule. The class given is in vivo. The method, then:
PXL065, orally administered.
as §1

A short description of series [5]: Solubility of crystalline DCl salt in various solvents (suspension, HPLC). The class given is physicochemical. The note with it: 24 hours at room temperature. The text has this:
Aliquots of the mother liquor were then taken from each suspension and analyzed by HPLC to determine the concentration of deuterium-enriched (R)-pioglitazone in the different solvents. [table]

The nature of series [6]: pH-dependent solubility of crystalline salts (48 h equilibration, HPLC). The class given is physicochemical. The note with it: for Solubility: room temperature, 48 hours; for solubility at 48 h: 22 °C, thermodynamic from solid. The method, then:
The pH-dependent solubility profiles of the crystalline DCl salt form of deuterium-enriched (R)-pioglitazone, and crystalline pioglitazone HCl were determined at room temperature (about 21° C. to about 23° C.) in the pH range of 0.3-7.6. For the crystalline HCl salt form of deuterium-enriched (R)-pioglitazone, the pH-dependent solubility profile was measured at room temperature (about 21° C. to about 23° C.) in the pH range of 0.3-3.5.
For the crystalline DCl salt form of deuterium-enriched pioglitazone, the pH-dependent solubility profile was measured at room temperature (about 21° C. to about 23° C.) in the pH range of 0.7-3.5.
Suspensions of the three crystalline forms were prepared in water or USP buffer solutions. The pH of the suspensions was adjusted through the addition of 0.1 M HCl or 0.1 M NaOH. For the preparation of suspensions with a pH of 0.5 or lower, the pH was adjusted using 1 M HCL.
The suspensions were then allowed to equilibrate at room temperature (about 21° C. to about 23° C.) for 48 hours. After equilibration the solid phases were separated from the liquid phases by centrifugation, subsequently dried and then analyzed by XRPD. The concentration of deuterium-enriched (R)-pioglitazone or pioglitazone in the liquid phases (mother liquors) was determined by HPLC (see HPLC method described in Example 5).

The nature of series [7]: Solubility of crystalline HCl salt in various solvents (visual dissolution). The class given is physicochemical. The note with it: 22 °C, thermodynamic from solid, ambient temperature, visual inspection. The method, then:
[…]; (ii) the resulting mixtures were then stirred at ambient temperature (about 21° C. to about 23° C.) for 5-10 minutes; (iii) the mixtures were then visually inspected to determine if the crystalline HCl salt had completely dissolved; (iv) if the crystalline HCl salt had not completely dissolved more solvent was added until complete dissolution occurred. Quantitative testing: (i) 100 mg of crystalline HCl salt was added to 4 vol. of each solvent (0.4 mL) dimethylformamide, methanol and DMSO; (ii) the resulting mixtures were then stirred at ambient temperature (about 20° C. to about 25° C.) for 5-10 minutes; (iii) the mixtures were then visually inspected to determine if the crystalline HCl salt had completely dissolved; (iv) if the crystalline HCl salt had not completely dissolved more solvent was added until complete dissolution occurred.
The solubilities were then calculated using the total quantity of crystalline HCl salt and solvent used for each solvent.

Setting [8] is: single oral 5 mg/kg (capsule), fasted male dogs, plasma, mean.

What is called AUC(0-t) is exposure summed from dosing to a finite time, without extrapolation to infinity. Low values mean less exposure, high ones more exposure. Take `CCc1ccc(CCOc2ccc(CC3SC(=O)NC3=O)cc2)nc1` (racemic) [Pioglitazone]: the values for the AUC(0-t) in the series “in vivo” (female) and in the series “in vivo” (male) were 5620 ng·h/mL and 2970 ng·h/mL, respectively. Moreover, the “AUC0-24, ss dose normalized, total pioglitazone” value (shortened to “AUC0-24, ss dose normalized”) in series [1] (female dogs (F), Day 91, 10 mg/kg/day) turned out to be 562 ng·h/mL; in series [1] (male dogs (M), Day 91, 10 mg/kg/day), 297 ng·h/mL.
As to `[2H][C@]1(Cc2ccc(OCCc3ccc(CC)cn3)cc2)SC(=O)NC1=O` [PXL065, deuterium-enriched (R)-pioglitazone], the “AUC0-24,ss, total pioglitazone” value in series [2] (15 mg tablet once daily, repeated doses) worked out at 6505 ng·h/mL. Also, the “AUC0-24, ss dose normalized” value in series [2] (15 mg tablet) came out at 434 ng·h/mL/mg. The “AUC0-24,ss, total pioglitazone” value in series [2] (30 mg tablet once daily, repeated doses) amounted to 13802 ng·h/mL. In addition, the “AUC0-24, ss dose normalized” value in series [2] (30 mg tablet) was determined as 460 ng·h/mL/mg. In addition, the “Increase of relative bioavailability compared to Actos” value in series [2] (humans, repeated doses) is 55%-65%. In series [3] (dog, in vivo, po, 5 mg/kg), the “AUC0-24, Total Pio” value turned out to be 7000 ng·h/mL; the “AUC0-24, Total R-pio” value is 5770 ng·h/mL; the “AUC0-24, Total S-pio” value is 1240 ng·h/mL; the “Cmax, Total Pio” value was 1520 ng/mL. Besides, in series [3] (dog, in vivo, po, 5 mg/kg), the “Cmax, Total R-pio” value is listed as 1330 ng/mL; the “Cmax, Total S-pio” value is reported as 227 ng/mL; the “Tmax, Total Pio” value stood at 1 h; the “Tmax, Total R-pio” value turned out to be 1 h. In addition, the “Tmax, Total S-pio” value in series [3] (dog, in vivo, po, 5 mg/kg) is given as 2 h. Also, in series [3] (setting [8]), the “T1/2z, Total Pio” value was 1.46^a h; the “T1/2z, Total R-pio” value is listed as 1.43^a h; the “T1/2z, Total S-pio” value is 1.62^a h. In addition, in series [4], the “AUCinf dose normalized, total pioglitazone” value was determined as 618 ng·h/mL/mg. Besides, in series [4] (fasted healthy subjects), the “AUCinf, total pioglitazone” value worked out at 13896 ng·h/mL. In addition, the “AUC0-24, ss dose normalized” value in series [1] (female dogs (F), Day 91, 5 mg/kg/day) is 1762 ng·h/mL. For the same compound, the “AUC0-24,ss, total pioglitazone” value in series [1] (female dogs (F)) amounted to 8710 ng·h/mL. Moreover, the “AUC0-24, ss dose normalized” value in series [1] (male dogs (M), Day 91, 5 mg/kg/day) is 2180 ng·h/mL. The “AUC0-24,ss, total pioglitazone” value in series [1] (male dogs (M)) is 10900 ng·h/mL.
Broadly, the Solubility is how much of the substance goes into solution per volume. As to `[2H]Cl.[2H]N1C(=O)S[C@]([2H])(Cc2ccc(OCCc3ccc(CC)cn3)cc2)C1=O` [deuterium-enriched (R)-pioglitazone], the Solubility came to 500 µg/mL in series [5] (2-propanol); 500 µg/mL in series [5] (3-pentanone); 500 µg/mL in series [5] (Acetone); 2000 µg/mL in series [5] (Chloroform); 225900 µg/mL in series [5] (DMSO); 4400 µg/mL in series [5] (Ethanol). The Solubility was less than 100 µg/mL in series [5] (Ethyl acetate); 45000 µg/mL in series [5] (Methanol); 46400 µg/mL in series [5] (N,N-dimethylformamide); 1800 µg/mL in series [5] (Tetrahydrofuran); 7700 µg/mL in series [5] (Water); less than 100 µg/mL in series [5] (tert-butyl methyl ether). Further, the Solubility in series [6] (Acetate Buffer, filtered mother liquor pH 4.4) was less than 50 µg/mL; in series [6] (Phosphate Buffer, filtered mother liquor pH 6.5), less than 50 µg/mL; in series [6] (Phosphate Buffer, filtered mother liquor pH 7.4) it was less than 50 µg/mL; in series [6] (Water, filtered mother liquor pH 0.4), 1600 µg/mL; in series [6] (Water, filtered mother liquor pH 0.6), 3010 µg/mL; in series [6] (Water, filtered mother liquor pH 0.8), 3300 µg/mL. For the same compound, the Solubility is 4540 µg/mL in series [6] (Water, filtered mother liquor pH 1.4); 2580 µg/mL in series [6] (Water, filtered mother liquor pH 1.6); 390 µg/mL in series [6] (Water, filtered mother liquor pH 2.4); 50 µg/mL in series [6] (Water, filtered mother liquor pH 3.7); less than 50 µg/mL in series [6] (Water, filtered mother liquor pH 6.8). In series [6] (above pH 4), the “Solubility (in words)” value is given as “practically insoluble”.
As a reminder, the solubility is the concentration that dissolves in the medium under given conditions. Take `[2H][C@]1(Cc2ccc(OCCc3ccc(CC)cn3)cc2)SC(=O)NC1=O` [deuterium-enriched (R)-pioglitazone]: the Solubility in series [7] (organic solvent or mixture, DMSO) was more than 50000 µg/mL; in series [7] (organic solvent or mixture, Dichloromethane), 5000 to 10000 µg/mL; in series [7] (organic solvent or mixture, Ethanol), 5000 to 10000 µg/mL; in series [7] (organic solvent or mixture, Ethyl acetate), 5000 to 10000 µg/mL; in series [7] (organic solvent or mixture, Methanol), approximately 50000 µg/mL; in series [7] (organic solvent or mixture, N,N-dimethylformamide), approximately 50000 µg/mL. The Solubility is 5000 to 10000 µg/mL in series [7] (organic solvent or mixture, Tetrahydrofuran); 5000 to 10000 µg/mL in series [7] (organic solvent or mixture, Toluene); 5000 to 10000 µg/mL in series [7] (Water). The solubility at 48 h in series [6] (pH 0.5, aqueous buffer) was 2330 µg/mL; in series [6] (pH 0.6, aqueous buffer) it was 2600 µg/mL; in series [6] (pH 0.7, aqueous buffer) it was 3270 µg/mL; in series [6] (pH 0.8, aqueous buffer) it was 3770 µg/mL; in series [6] (pH 1.4, simulated gastric fluid), 5250 µg/mL; in series [6] (pH 1.6, simulated gastric fluid), 3470 µg/mL. The solubility at 48 h in series [6] (pH 3, aqueous buffer) was 200 µg/mL; in series [6] (pH 5.7, aqueous buffer) it was less than 50 µg/mL. The “Solubility (in words)” value in series [6] (pH 4) is given as “practically insoluble”.
